Results from patent US9434711B2 (Janssen Pharmaceutica, NV, priority 2007, dated 2016).
Like-named read-outs stand apart in the source and are kept apart here.

What was measured:
canine TRPM8 = canine TRPM8 (Canis lupus familiaris, UniProt Q1A7N1); experiment: In Vitro Canine TRPM8 Functional Assay (Ca2+ fluorescence, icilin activation); format: cell-based; conditions: for IC50: HEK293 cells stably expressing canine TRPM8, icilin activation, eight-point dose-response, read-out: IC50; for inhibition at 0.2 µM: compound at 0.2 μM, canine TRPM8, icilin activation, read-out: % Inh @ 0.2
Outline: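 Cells (HEK293, stable canine TRPM8) are seeded 24 h before assay. They are then dye-loaded with Calcium 3 at 37 °C followed by room temperature. Compound is added and monitored for 5 min, after which icilin (~80% maximal response) is added.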

rat TRPM8 = rat TRPM8 (Rattus norvegicus (Rat), UniProt Q8R455); experiment: In Vitro Rat TRPM8 Functional Assay (Ca2+ fluorescence, icilin EC80); format: cell-based; conditions: read-out: rTRPM8 IC50
Description: (§1) HEK293 cells are routinely grown as monolayer in Dulbecco's minimum essential medium supplemented with 10% FBS, 1 mM L-glutamine, 100 units/mL penicillin and 100 ug/mL streptomycin. Cells are maintained in 5% CO2 at 37° C.
(§2) For functional expression of TRPM8, the full-length cDNA encoding human and rat TRPM8 are subcloned into pCI-NEO mammalian expression vectors. The expression constructs are transiently transfected into HEK293 cells according to the FuGENE 6 Transfection Reagent® (ROCHE) instructions. Within twenty-four hours, transiently transfected cells are harvested and either seeded directly into assay plate or cryopreserved for future usage. […]
(§3) Maximal fluorescence intensity (FI) achieved upon addition of icilin is exported from the FDSS and further analyzed using GraphPad Prism 3.02 (Graph Pad Software Inc., CA, U.S.A.) where data is normalized to percent of maximal response. The dose response curves from the average of quadruplicate wells for each data point are analyzed by using nonlinear regression of either sigmoidal dose response or sigmoidal dose response (variable slope). Finally, the IC50 values are calculated with the best-fit dose curve determined by Prism.

human TRPM8 = human TRPM8 (Homo sapiens (Human), UniProt Q7Z2W7); experiment: In Vitro Human TRPM8 Functional Assay (Ca2+ fluorescence, icilin EC80); format: cell-based; conditions: read-out: hTRPM8 IC50
Description: as §1, §2, §3

male Sprague-Dawley rats = experiment: Rat Carrageenan-Induced Radiant Heat Hypersensitivity; format: in vivo; conditions: dose 30 p.o., HPbCD, Na salt form
Description: Intraplantar injection of carrageenan into the hind paw of rats causes a robust acute inflammatory response characterized by reddening, swelling and hypersensitivity of the paw to thermal and mechanical stimuli typically peaking 3-6 hours following application and subsiding over the 12-24 hours.
To assess the effect of test compounds of the formula (I) on inflammatory hyperalgesia radiant heat response latencies were evaluated 3 hours following intraplantar carrageenan (Lambda, Type IV, 200 uL) injection into a single hind paw in male Sprague-Dawley rats. The test compound was administered either 2 hours prior to or 1 hour following carrageenan injection. The intent was to determine whether the compound would prevent or retard the hypersensitivity associated with this inflammogen. Baseline thermal response latencies were determined prior to any treatment and again 3 hours after carrageenan injection. Percent reversal of hyperalgesia relative to vehicle treatment (% R) was calculated for both compound treatment paradigms according to the following formula and is depicted in Table 8: % R=(Post compound latency−Post vehicle latency)/((Baseline latency−Post vehicle latency)×100%

Male Sprague Dawley rats = experiment: Chronic Constriction Injury (CCI)-Induced Model of Neuropathic Pain, Acetone-Induced Hypersensitivity; format: in vivo, rat; conditions: Rattus norvegicus, po, Na salt form; for inhibition in vivo at 3 mg/kg: 3 mg/kg p.o.; for inhibition in vivo at 10 mg/kg: 10 mg/kg p.o.; for inhibition in vivo at 17.8 mg/kg: 17.8 mg/kg p.o.; for inhibition in vivo at 30 mg/kg: 30 mg/kg p.o.; for inhibition in vivo at 56 mg/kg: 56 mg/kg p.o.
[1] = treatment 1 hour relative to Cg
[2] = treatment −2 hours relative to Cg
[3] = 4 h, vehicle HPbCD, Water, pretreatment 4 hr, read-out: Percent Inhibition
[4] = 4 h, HPbCD, pretreatment 4 hr, read-out: Percent Inhibition
[5] = 4 h, Water, pretreatment 4 hr, read-out: Percent Inhibition

Sequence of canine TRPM8 (Q1A7N1 1-1104): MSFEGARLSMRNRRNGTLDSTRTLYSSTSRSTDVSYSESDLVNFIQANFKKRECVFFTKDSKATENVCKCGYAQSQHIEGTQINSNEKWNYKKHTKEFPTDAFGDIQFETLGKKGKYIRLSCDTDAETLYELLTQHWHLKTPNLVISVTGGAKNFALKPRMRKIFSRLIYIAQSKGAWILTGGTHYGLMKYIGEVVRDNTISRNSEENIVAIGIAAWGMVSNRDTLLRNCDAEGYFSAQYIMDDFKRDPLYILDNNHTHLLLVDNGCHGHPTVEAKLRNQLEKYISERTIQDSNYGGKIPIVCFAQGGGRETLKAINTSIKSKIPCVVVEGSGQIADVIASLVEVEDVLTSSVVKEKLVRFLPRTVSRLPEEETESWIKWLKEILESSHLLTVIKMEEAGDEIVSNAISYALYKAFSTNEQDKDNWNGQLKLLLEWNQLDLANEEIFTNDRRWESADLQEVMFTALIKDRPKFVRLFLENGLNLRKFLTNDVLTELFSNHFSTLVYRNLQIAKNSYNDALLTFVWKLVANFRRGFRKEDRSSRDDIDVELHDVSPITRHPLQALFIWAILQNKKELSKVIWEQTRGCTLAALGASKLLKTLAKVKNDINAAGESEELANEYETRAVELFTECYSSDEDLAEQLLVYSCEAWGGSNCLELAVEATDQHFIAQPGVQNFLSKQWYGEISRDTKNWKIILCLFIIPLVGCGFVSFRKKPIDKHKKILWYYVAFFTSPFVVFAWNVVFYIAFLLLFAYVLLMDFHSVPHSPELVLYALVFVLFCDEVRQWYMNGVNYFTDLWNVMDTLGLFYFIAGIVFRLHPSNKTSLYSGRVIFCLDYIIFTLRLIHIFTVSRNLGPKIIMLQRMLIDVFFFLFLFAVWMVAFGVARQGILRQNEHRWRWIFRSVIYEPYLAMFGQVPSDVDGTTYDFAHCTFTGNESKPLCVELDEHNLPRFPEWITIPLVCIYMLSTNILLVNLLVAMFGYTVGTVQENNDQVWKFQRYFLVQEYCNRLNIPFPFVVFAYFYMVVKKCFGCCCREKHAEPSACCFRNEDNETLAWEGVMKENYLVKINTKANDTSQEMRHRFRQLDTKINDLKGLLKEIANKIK
Sequence of human TRPM8 (Q7Z2W7 whole entry): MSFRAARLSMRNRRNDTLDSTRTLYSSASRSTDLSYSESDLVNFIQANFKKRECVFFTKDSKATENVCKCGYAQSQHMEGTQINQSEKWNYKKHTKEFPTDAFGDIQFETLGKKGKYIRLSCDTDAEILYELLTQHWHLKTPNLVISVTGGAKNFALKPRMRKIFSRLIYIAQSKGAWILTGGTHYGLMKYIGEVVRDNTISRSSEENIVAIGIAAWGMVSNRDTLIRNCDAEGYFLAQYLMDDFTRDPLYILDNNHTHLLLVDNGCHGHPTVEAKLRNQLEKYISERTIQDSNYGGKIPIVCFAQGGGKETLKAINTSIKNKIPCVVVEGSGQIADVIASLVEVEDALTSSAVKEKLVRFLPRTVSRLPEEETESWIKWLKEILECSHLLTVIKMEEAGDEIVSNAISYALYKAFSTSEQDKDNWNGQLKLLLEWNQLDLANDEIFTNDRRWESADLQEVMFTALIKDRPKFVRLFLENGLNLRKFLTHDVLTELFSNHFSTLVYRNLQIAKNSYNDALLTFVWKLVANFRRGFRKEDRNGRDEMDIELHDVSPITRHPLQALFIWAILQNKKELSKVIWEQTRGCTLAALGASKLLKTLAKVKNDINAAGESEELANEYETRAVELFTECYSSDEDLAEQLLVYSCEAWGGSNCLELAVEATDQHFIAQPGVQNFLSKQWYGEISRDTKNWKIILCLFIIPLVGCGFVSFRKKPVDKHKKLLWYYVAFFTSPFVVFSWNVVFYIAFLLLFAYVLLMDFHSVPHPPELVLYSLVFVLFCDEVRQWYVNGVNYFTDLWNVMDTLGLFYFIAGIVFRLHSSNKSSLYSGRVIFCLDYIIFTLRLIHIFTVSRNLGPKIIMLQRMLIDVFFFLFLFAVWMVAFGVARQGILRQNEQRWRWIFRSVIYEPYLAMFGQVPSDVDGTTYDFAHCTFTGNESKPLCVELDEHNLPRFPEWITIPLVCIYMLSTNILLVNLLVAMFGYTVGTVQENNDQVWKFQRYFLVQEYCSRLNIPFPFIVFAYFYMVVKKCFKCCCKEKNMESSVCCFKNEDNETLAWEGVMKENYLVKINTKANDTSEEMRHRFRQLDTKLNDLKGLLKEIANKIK
Sequence of rat TRPM8 (Q8R455 whole entry): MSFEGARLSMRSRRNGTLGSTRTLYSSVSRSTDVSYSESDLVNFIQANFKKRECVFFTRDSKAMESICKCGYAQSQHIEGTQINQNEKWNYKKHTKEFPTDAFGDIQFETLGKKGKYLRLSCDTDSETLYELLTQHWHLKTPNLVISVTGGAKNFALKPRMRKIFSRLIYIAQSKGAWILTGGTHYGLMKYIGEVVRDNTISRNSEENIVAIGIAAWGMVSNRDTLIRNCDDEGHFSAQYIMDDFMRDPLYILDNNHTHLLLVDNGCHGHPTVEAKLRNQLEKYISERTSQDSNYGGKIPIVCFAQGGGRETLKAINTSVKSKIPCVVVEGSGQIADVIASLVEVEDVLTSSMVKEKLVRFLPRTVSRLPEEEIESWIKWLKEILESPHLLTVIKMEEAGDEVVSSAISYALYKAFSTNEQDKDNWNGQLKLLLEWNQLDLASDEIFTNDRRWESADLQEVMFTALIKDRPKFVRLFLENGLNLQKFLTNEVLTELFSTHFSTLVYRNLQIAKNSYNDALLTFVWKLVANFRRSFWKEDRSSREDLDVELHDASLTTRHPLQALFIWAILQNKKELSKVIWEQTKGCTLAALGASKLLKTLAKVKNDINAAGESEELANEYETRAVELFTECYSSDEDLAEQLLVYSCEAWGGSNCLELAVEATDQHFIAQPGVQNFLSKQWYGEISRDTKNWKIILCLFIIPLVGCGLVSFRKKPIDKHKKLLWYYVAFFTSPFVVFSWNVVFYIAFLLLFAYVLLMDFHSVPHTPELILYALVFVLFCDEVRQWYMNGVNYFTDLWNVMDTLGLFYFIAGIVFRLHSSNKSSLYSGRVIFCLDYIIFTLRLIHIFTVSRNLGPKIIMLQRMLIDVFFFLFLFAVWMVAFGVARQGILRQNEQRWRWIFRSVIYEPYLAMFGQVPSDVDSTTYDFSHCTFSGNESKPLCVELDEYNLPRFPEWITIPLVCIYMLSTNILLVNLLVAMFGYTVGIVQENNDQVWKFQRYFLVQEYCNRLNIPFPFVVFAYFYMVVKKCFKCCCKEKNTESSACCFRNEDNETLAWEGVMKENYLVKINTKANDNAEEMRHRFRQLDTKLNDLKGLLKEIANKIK

In the case of `Cc1c(N(Cc2ccc(F)c(C(F)(F)F)c2)S(=O)(=O)c2ccc(C(=O)O)cc2)sc2ccccc12` [Compound 306, N-(3-Methyl-benzo[b]thiophen-2-yl)-N-(4-fluoro-3-trifluoromethyl-benzyl)-4-carboxy-benzenesulfonamide], the IC50 (canine TRPM8) is reported as 0.8 nM, the inhibition at 0.2 µM (canine TRPM8) is reported as 102% and the IC50 (rat TRPM8; Freshly transfected cells) is reported as 5 nM. For the same molecule, the IC50 (human TRPM8; Freshly transfected cells) was 4 nM, the “Percent Reversal, relative to vehicle” value (male Sprague-Dawley rats; [1]) was 100% and the “Percent Reversal, relative to vehicle” value (male Sprague-Dawley rats; [2]) was 64%. For the same molecule, the inhibition in vivo at 3 mg/kg (Male Sprague Dawley rats; [3]) was 20%, the inhibition in vivo at 10 mg/kg (Male Sprague Dawley rats; [3]) was 38% and the inhibition in vivo at 17.8 mg/kg (Male Sprague Dawley rats; [3]) was 57%. It also gave an inhibition in vivo at 30 mg/kg (Male Sprague Dawley rats; [3]) of 68%, an inhibition in vivo at 56 mg/kg (Male Sprague Dawley rats; [3]) of 77% and an inhibition in vivo at 100 mg/kg (Male Sprague Dawley rats; 4 h, 100 mg/kg p.o., vehicle HPbCD, Water, pretreatment 4 hr, read-out: Percent Inhibition) of 77%. The inhibition in vivo at 30 mg/kg (Male Sprague Dawley rats; 6 h, HPbCD, pretreatment 6 hr, read-out: Percent Inhibition) was 69% and the ED50 (Male Sprague Dawley rats; vehicle HPbCD, Water, pretreatment 4 hr) was 15 mg/kg.
For `Cc1c(N(Cc2ccc(OC(F)(F)F)cc2)S(=O)(=O)c2ccc(C(=O)O)cc2)sc2ccccc12` [Compound 496, N-(3-Methyl-benzo[b]thiophen-2-yl)-N-(4-trifluoromethoxy-benzyl)-4-carboxy-benzenesulfonamide], the IC50 (canine TRPM8) was 0.8 nM, the inhibition at 0.2 µM (canine TRPM8) was 101% and the IC50 (rat TRPM8; Cryopreserved cells) was 1.8 nM. For the same molecule, the IC50 (human TRPM8; Cryopreserved cells) was 1.4 nM, the “Percent Reversal, relative to vehicle” value (male Sprague-Dawley rats; [1]) was 106% and the “Percent Reversal, relative to vehicle” value (male Sprague-Dawley rats; [2]) was 74%. It also gave an inhibition in vivo at 30 mg/kg (Male Sprague Dawley rats; 2 h, Water, pretreatment 2 hr, read-out: Percent Inhibition) of 74%, an inhibition in vivo at 0.3 mg/kg (Male Sprague Dawley rats; 4 h, 0.3 mg/kg p.o., HPbCD, pretreatment 4 hr, read-out: Percent Inhibition) of 28% and an inhibition in vivo at 1 mg/kg (Male Sprague Dawley rats; 4 h, 1 mg/kg p.o., HPbCD, pretreatment 4 hr, read-out: Percent Inhibition) of 32%. It also gave an inhibition in vivo at 3 mg/kg (Male Sprague Dawley rats; [4]) of 23%, an inhibition in vivo at 5.6 mg/kg (Male Sprague Dawley rats; 4 h, 5.6 mg/kg p.o., HPbCD, pretreatment 4 hr, read-out: Percent Inhibition) of 72% and an inhibition in vivo at 10 mg/kg (Male Sprague Dawley rats; [4]) of 71%. It also gave an inhibition in vivo at 10 mg/kg (Male Sprague Dawley rats; [5]) of 76%, an inhibition in vivo at 17.8 mg/kg (Male Sprague Dawley rats; [5]) of 64% and an inhibition in vivo at 30 mg/kg (Male Sprague Dawley rats; [5]) of 72%. For the same molecule, the inhibition in vivo at 56 mg/kg (Male Sprague Dawley rats; [5]) was 68% and the ED50 (Male Sprague Dawley rats; HPbCD, pretreatment 4 hr) was 3.5 mg/kg.
